Where a name gives a salt, the structure may show the parent alone.
Tests used:
[1] = molecular target: T1, Recombinant human VAP-1 SSAO (Homo sapiens, UniProt Q16853); test: In vitro inhibition of VAP-1 SSAO activity (coupled colourimetric method); format: biochemical; details: for Selectivity for VAP-1 SSAO over MAO: ratio of total rat MAO IC50 to human VAP-1 SSAO IC50; for IC50: recombinant human VAP-1 SSAO in CHO cell lysate, 1 mM benzylamine, pH 7.6, 37° C., read-out: VAP-1 SSAO inhibitory activity IC50
T1 construct: expressed in transfected cells; host or cells: Chinese Hamster Ovary (CHO) cells; NP40 lysate supernatant used directly
T1 sequence (Q16853 1-763): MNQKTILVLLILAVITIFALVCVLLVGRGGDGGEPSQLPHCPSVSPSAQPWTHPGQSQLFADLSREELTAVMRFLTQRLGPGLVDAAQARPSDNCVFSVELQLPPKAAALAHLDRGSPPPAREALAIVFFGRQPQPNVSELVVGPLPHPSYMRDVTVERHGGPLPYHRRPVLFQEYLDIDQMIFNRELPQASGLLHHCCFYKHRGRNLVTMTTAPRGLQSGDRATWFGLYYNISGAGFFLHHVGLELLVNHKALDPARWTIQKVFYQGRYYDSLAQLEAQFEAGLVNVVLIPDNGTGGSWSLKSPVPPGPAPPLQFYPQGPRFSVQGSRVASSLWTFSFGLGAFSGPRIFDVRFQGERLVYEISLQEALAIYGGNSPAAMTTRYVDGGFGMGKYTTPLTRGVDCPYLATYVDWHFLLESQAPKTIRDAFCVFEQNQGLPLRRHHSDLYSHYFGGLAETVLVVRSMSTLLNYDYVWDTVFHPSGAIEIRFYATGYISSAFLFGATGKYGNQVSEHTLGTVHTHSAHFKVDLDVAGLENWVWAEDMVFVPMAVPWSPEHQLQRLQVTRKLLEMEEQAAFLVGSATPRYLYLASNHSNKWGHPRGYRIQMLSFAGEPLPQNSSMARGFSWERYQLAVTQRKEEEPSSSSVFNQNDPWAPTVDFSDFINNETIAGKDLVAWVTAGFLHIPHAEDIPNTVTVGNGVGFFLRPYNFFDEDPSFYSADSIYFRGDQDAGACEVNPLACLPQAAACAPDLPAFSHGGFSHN
Description: VAP-1 SSAO activity was measured using the coupled colourimetric method essentially as described for monoamine oxidase and related enzymes (Holt, A., et al., Anal. Biochem. 244:384-392 (1997)). Recombinant human VAP-1 SSAO expressed in Chinese Hamster Ovary (CHO) cells was used as a source of VAP-1 SSAO for activity measurements. Native CHO cells have negligible SSAO activity. These cells and their culture have previously been described (Smith, D. J., et al., J. Exp. Med. 188:17-27 (1998)). A cell lysate was prepared by suspending approximately 3.6×10^8 cells in 25 ml lysis buffer (150 mM NaCl, 10 mM Tris-Base pH 7.2, 1.5 mM MgCl2, 1% NP40) and incubating at 4° C. overnight on a rotating table. The lysate was clarified by centrifugation at 18000 g for 5 min at room temperature and the supernatant used directly in the assay. The VAP1 SSAO assay was performed in 96 well microtitre plates as follows. To each well was added a predetermined amount of inhibitor if required. The amount of inhibitor varied in each assay but was generally at a final concentration of between 1 nM and 50 μM. Controls lacked inhibitor. The inhibitor was in total volume of […] in water. The following reagents were then added. 0.2M potassium phosphate buffer pH 7.6 to a total reaction volume of 200 μl, 45 μl of freshly made chromogenic solution containing 1 mM 2,4-dichlorophenol, 500 μM 4-aminoantipyrine and 4 U/ml horseradish peroxidase and an amount of CHO cell lysate containing VAP-1 SSAO that caused a change of 0.6 A490 per h. This was within the linear response range of the assay. The plates were incubated for 30 min at 37° C. and the background absorbance measured at 490 nm using a Wallac Victor II multilabel counter. To initiate the enzyme reaction 20 μl 10 mM benzylamine (final concentration=1 mM) was added and the plate incubated for 1 h at 37° C. The increase in absorbance, reflecting VAP-1 SSAO activity, was measured at490 nm. Inhibition was presented as percent inhibition compared to control after correcting for background absorbance and IC50 values calculated using GraphPad Prism.

Structure (SMILES) | melting point | Selectivity for VAP-1 SSAO over MAO [1] | IC50 [1] | Selectivity for VAP-1 SSAO over MAO ([1]; fumarate) | Selectivity for VAP-1 SSAO over MAO ([1]; succinate)
CN(N)[C@H]1Cc2ccccc2[C@@H]1O (as salt: maleate) [Compound 1, (1S,2S)-2-(1-methylhydrazino)-1-indanol hydrogenmaleate] | 104 to 106 °C | – | – | – | –
CN(N)[C@@H]1Cc2ccccc2[C@H]1O (as salt: maleate) [Compound 6, (1R,2R)-2-(1-methylhydrazino)-1-indanol hydrogenmaleate] | 104 to 106 °C | – | – | – | –
CO[C@H]1c2ccccc2C[C@@H]1N(C)N (as salt: maleate) [Compound 19, (1S,2S)-2-(1-methylhydrazino)-1-methoxyindane Hydrogenmaleate] | 113 to 115 °C | – | – | – | –
CCN(N)[C@@H]1Cc2ccccc2[C@H]1O (racemic) [Compound 2, (1R*,2R*)-2-(1-Ethylhydrazino)-1-indanol hydrogenmaleate] | – | 4 | 5.3 µM | – | –
CN(N)[C@@H]1Cc2ccccc2[C@H]1O (relative stereo) [Compound 4, (1R,*2R*)-2-(1-Methylhydrazino)-1-indanol hydrogenmaleate] | – | 32 | 0.66 µM | – | –
CN(N)[C@H]1Cc2ccccc2[C@@H]1O [Compound 1, (1S,2S)-2-(1-methylhydrazino)-1-indanol hydrogenmaleate] | – | 31 | 0.7 µM | – | –
CN(N)[C@@H]1Cc2ccccc2[C@H]1O [Compound 6, (1R,2R)-2-(1-methylhydrazino)-1-indanol hydrogenmaleate] | – | 29 | 0.65 µM | – | –
CN(N)[C@H]1Cc2ccccc2[C@@H]1O [Compound 7, (1S,2S)-2-(1-methylhydrazino)-1-indanol fumarate] | – | – | 0.47 µM | 28 | –
CN(N)[C@@H]1Cc2ccccc2[C@H]1O [Compound 8, (1R,2R)-2-(1-methylhydrazino)-1-indanol fumarate] | – | – | 0.56 µM | 21 | –
CN(N)[C@H]1Cc2ccccc2[C@@H]1O [Compound 9, (1S,2S)-2-(1-methylhydrazino)-1-indanol succinate] | – | – | 0.62 µM | – | 26
CN(N)[C@@H]1Cc2ccccc2[C@H]1O [Compound 10, (1R,2R)-2-(1-methylhydrazino)-1-indanol succinate] | – | – | 0.66 µM | – | 23
CN(N)[C@H]1Cc2ccccc2[C@@H]1O [Compound 11, (1S,2S)-2-(1-methylhydrazino)-1-indanol (S,S)-tartrate] | – | 31 | 0.71 µM | – | –
CN(N)[C@@H]1Cc2ccccc2[C@H]1O [Compound 12, (1R,2R)-2-(1-methylhydrazino)-1-indanol (S,S)-tartrate] | – | 30 | 0.66 µM | – | –
CN(N)[C@H]1Cc2ccccc2[C@@H]1O [Compound 13, (1S,2S)2-(1-methylhydrazino)-1-indanol (R,R)-tartrate] | – | 29 | 0.66 µM | – | –
CN(N)[C@@H]1Cc2ccccc2[C@H]1O [Compound 14, (1R,2R)-2-(1-methylhydrazino)-1-indanol (R,R)-tartrate] | – | 28 | 0.71 µM | – | –
CO[C@H]1c2ccccc2C[C@@H]1N(C)N [Compound 19, (1S,2S)-2-(1-methylhydrazino)-1-methoxyindane Hydrogenmaleate] | – | 3 | 4.32 µM | – | –

Source: US6982286B2, “Carbocyclic hydrazino inhibitors of copper-containing amine oxidases” (Biotie Therapies Corp., priority 2001, dated 2006)
